Consider 27 compounds from ChEMBL document CHEMBL3259561, “Search for novel histone deacetylase inhibitors. Part II: design and synthesis of novel isoferulic acid derivatives” (Bioorg Med Chem, 2014).

Some results are limits rather than exact numbers.

As a reminder, the IC50 is the concentration at which inhibition is half-maximal. Higher therefore signals weaker potency in that assay.

For one assay, the target named is Histone deacetylase. The experiment in a line: Inhibition of HDAC in human HeLa cell nuclear extract using acetylated lysine as substrate after 30 mins by spectrophotometric analysis. The assay is classed as protein assay.
The test system of another assay is HeLa. Kind of assay: cells. The assay is classed as functional, cell-based. To be noted: Homo sapiens, 48 h.
In the next assay the test system is MDA-MB-231. Kind of assay: cells. The assay is classed as functional, cell-based. To be noted: Homo sapiens, MDA-MB-231, 48 h.

Description for HeLa: Growth inhibition of human HeLa cells after 48 hrs by MTT assay
Description for MDA-MB-231: Growth inhibition of human MDA-MB-231 cells after 48 hrs by MTT assay

On Histone deacetylase, `COc1ccc(/C=C/C(=O)Nc2ccc(C)cc2N)cc1OCC(=O)Nc1ccccc1F` gave an IC50 of 29.5 µM. This counts as double-digit micromolar.
The same measure, in the same setting: the same measure for `COc1ccc(/C=C/C(=O)NO)cc1OCC(=O)Nc1cc(Br)cc(C(F)(F)F)c1`: 9.04 µM.
Regarding `COc1ccc(NC(=O)COc2cc(/C=C/C(=O)NO)ccc2OC)cc1`, the IC50 was found to be 4.87 µM with HeLa, 3.81 µM in the assay on MDA-MB-231 and 0.94 µM at Histone deacetylase.
For `COc1ccc(/C=C/C(=O)NO)cc1OCC(=O)Nc1ccccc1F` the same measures were 3.91 µM, 15.6 µM and 0.57 µM.
For `COc1ccc(/C=C/C(=O)Nc2ccccc2N)cc1OCC(=O)Nc1cc(C(F)(F)F)cc(C(F)(F)F)c1`, the IC50 on Histone deacetylase was over 200 µM.
On the same count and under the same terms, the same measure for `COc1ccc(/C=C/C(=O)Nc2ccccc2N)cc1OCC(=O)Nc1ccc(Br)cc1`: over 200 µM.
Same read-out and setting: in the case of `COc1ccc(/C=C/C(=O)Nc2ccccc2N)cc1OCC(=O)Nc1ccc(F)c(Cl)c1` it was 66.52 µM; in that of `COc1ccc(/C=C/C(=O)Nc2ccccc2N)cc1OCC(=O)Nc1cc(Br)cc(C(F)(F)F)c1`, over 200 µM.
Same read-out and setting: in the case of `COc1ccc(/C=C/C(=O)NO)cc1OCC(=O)Nc1cccc(C(F)(F)F)c1` it was 2.96 µM; in that of `COc1ccc(/C=C/C(=O)Nc2ccc(C)cc2N)cc1OCC(=O)Nc1cccc(C(F)(F)F)c1`, over 200 µM; in that of `COc1ccc(/C=C/C(=O)Nc2ccc(C)cc2N)cc1OCC(=O)Nc1ccc(Cl)c(Cl)c1`, over 200 µM.
With `COc1ccc(/C=C/C(=O)NO)cc1OCC(=O)Nc1ccc(F)c(Cl)c1`, the IC50 against Histone deacetylase worked out at 5.82 µM.
Same read-out and setting: in the case of `COc1ccc(/C=C/C(=O)Nc2ccc(C)cc2N)cc1OCC(=O)Nc1cccc(F)c1` it was 71.02 µM; in that of `COc1ccc(NC(=O)COc2cc(/C=C/C(=O)Nc3ccc(C)cc3N)ccc2OC)cc1`, 164.61 µM.
On the same count and under the same terms, the same measure for `COc1ccc(/C=C/C(=O)Nc2ccc(C)cc2N)cc1OCC(=O)Nc1cc(C(F)(F)F)cc(C(F)(F)F)c1`: 56.71 µM.
`COc1ccc(/C=C/C(=O)NO)cc1OCC(=O)Nc1ccc(Br)cc1`: the results for the IC50 with HeLa, in the assay with MDA-MB-231 and against Histone deacetylase were 5.39 µM, 5.87 µM and 0.73 µM, respectively.
Compound `COc1ccc(/C=C/C(=O)Nc2ccc(C)cc2N)cc1OCC(=O)Nc1ccc(Br)cc1` gave an IC50 on Histone deacetylase of 58.24 µM.
Still for that read-out and setting: in the case of `COc1ccc(NC(=O)COc2cc(/C=C/C(=O)Nc3ccccc3N)ccc2OC)cc1` it was 49.3 µM; in that of `COc1ccc(/C=C/C(=O)Nc2ccccc2N)cc1OCC(=O)Nc1ccc(Cl)c(Cl)c1`, over 200 µM.
On the same count and under the same terms, in the case of `COc1ccc(/C=C/C(=O)Nc2ccccc2N)cc1OCC(=O)Nc1cccc(C(F)(F)F)c1` it was 22.16 µM; in that of `COc1ccc(/C=C/C(=O)Nc2ccc(C)cc2N)cc1OCC(=O)Nc1cc(Br)cc(C(F)(F)F)c1`, 124.67 µM.
For the compound `COc1ccc(/C=C/C(=O)NO)cc1OCC(=O)Nc1ccc(Cl)c(Cl)c1`, the IC50 is 13.3 µM in the assay with HeLa, 1.9 µM in the assay with MDA-MB-231 and 1.37 µM against Histone deacetylase.
On the same counts, the results for `COc1ccc(/C=C/C(=O)Nc2ccccc2N)cc1OCC(=O)Nc1ccccc1F` are 20.5 µM, 15.5 µM and 15.6 µM.
On the same counts, the results for `COc1ccc(/C=C/C(=O)NO)cc1OCC(=O)Nc1cccc(F)c1` are 6.48 µM, 3.41 µM and 2.81 µM.
`COc1ccc(/C=C/C(=O)Nc2ccc(C)cc2N)cc1OCC(=O)Nc1ccc(F)c(Cl)c1` had an IC50 against Histone deacetylase of 31.32 µM.
The same measure, in the same setting: the same measure for `COc1ccc(/C=C/C(=O)Nc2ccccc2N)cc1OCC(=O)Nc1cccc(F)c1`: 24.01 µM.
The same measure, in the same setting: the same measure for `COc1ccc(/C=C/C(=O)NO)cc1OCC(=O)Nc1cc(C(F)(F)F)cc(C(F)(F)F)c1`: 4.91 µM.
